What was measured:
SKW-3 A2.13 TCR cells = experiment: CD69 upregulation, SKW-3 A2.13 TCR cells; format: cell-based, human; conditions: exp5
Experimental: (§1) For TCR transduced SKW-3 T cell lines (SKW-3-TCR), response to antigen was determined using flow cytometry to assess the level of upregulation of the T cell activation marker CD69. One hundred thousand BLCL 9031 cells (HLA-DQ8 + : HLA-DQA*03:01:01, HLA-DQB1*03:02) as APCs were incubated at 37 °C, 5% CO2 for 24 h with increasing concentrations of synthesised HIP ([…]; GLBiochem) or native C-peptide ([…]; GLBiochem) or 50 μg DQ8-glia-α1 (control) in 96 well round-bottomed plates. To confirm HLA-DQ8-restriction, 2 μg/ml (SKW-3-ET672-1) or 50 μg/ml (all other SKW-3-TCR cell lines) C-peptide or HIP pulsed BLCL 9031 cells were blocked with a final concentration of 20 μg/ml anti-HLA-DQ monoclonal antibody (clone SPV-L3) for 3 h before stimulation (i.e. before the addition of SKW-3-TCR cell lines). T-cell activation assay were performed by mixing 1 × 10^5 SKW-3-TCR cells, SKW-3 parental cells (control) or SP3.4 (HLA-DQ8-glia-α1 restricted T cell line; control) cells with the peptide-pulsed BLCL 9031 cells or with 5 μl anti-CD3/CD28 dynabeads (Thermo Fisher Scientific) (control) at 37 °C, 5% CO2 for 20 h before antibody staining. The activated induced SKW-3-TCR T cells were washed twice with FACS buffer (Phosphate buffered saline, 10% Fetal Calf Serum (FCS; Merck)) (350 g, 5 min), and stained a mixture of 1:100 diluted V450 mouse anti-human CD3 (clone UCHT1, BD Biosciences) and APC Mouse Anti-Human CD69 (Clone FN50, BD Biosciences) for 1 h on ice in the dark. The samples were washed twice with PBS buffer (350 g, 5 min) to remove excess antibodies. Afterward, the samples were stained for live/dead cells with Zombie NIR (Biolegend) for 30 min at RT in the dark before being washed 6 times with FACS buffer (350 g, 5 min). Before data acquisition, the samples were resuspended in 100 μl of FACS buffer and analysed via flow cytometry (LSR II; BD Biosciences; BD FACSDiva-8.0.1 software). Collected data were analysed using Flowjo v10.6.0 (FlowJo), and then Prism 9 (GraphPad Software). […] Using these settings, the median fluorescence intensity (MFI) corresponding to the relative level of CD69 expressed on the SKW-3-TCR.TCR cell lines was determined using Flowjo v10.6.0 software. The MFI of CD69 were analysed by using Prism 9 (GraphPad Software). Three to six independent experiments were conducted, and all sample were performed in duplicates. Statistical significance was determined using P-values generated by t-test or one-way ANOVA multiple comparison of the MFI of no-peptide-stimulated SKW-3-TCR T cells versa the MFI of peptide-stimulated SKW-3-TCR T cells.
(§2) Supplementary Figure 1. Antigen reactivity of T cells transduced with TCRs isolated from T1D patient clones and recent onset T1D patient PBMCs. a, b Expression of CD69 on the surface of TCR transduced SKW3 cell lines stimulated overnight with C-peptide-p ulsed BLCL 9031 (top panel), or HIP-p ulsed BLCL 9031 (bottom panel). The SKW3 cell lines transduced with a TCRs isolated from primary T1D T clones and b TCRs isolated from recent onset T1D patient PBMCs (TCR name indicated above the graphs), were cultured with BLCL 9031 (no peptide) or with serial diluted concentration of peptide as indicated (grey), or 50 µg/ml C-peptide/HIP-pulsed BLCL 9031 blocked by anti-H LA-D Q mAb (clone SPV-L3; 20 µg/ml) (black), or 50 µg/ml glia-α1-p ulsed BLCL 9031 (purple; control), or 50 µg/ml C-peptide/HIP peptide only (cyan; control), or T cell lines alone (pink; control). Due to the strong reactivity of the SKW-T CR E672-1 cell line to HIP, only 2 µg of HIP was used in anti-HLA-D Q mAb blocking experiments. All samples were performed in duplicates and the black dots are presented as the mean fluorescence intensity (MFI) of average of duplicated values from three to six (n=3, n=4, n=5 or n=6) independent experiments. […]
(§3) expression. The fold increase in MFI CD69 expression was calculated by dividing the average MFI CD69 from each sample by the average MFI CD69 from BLCL 9031 (no […]
(§4) peptide). […]

SKW-3 A5.5 TCR cells = experiment: CD69 upregulation, SKW-3 A5.5 TCR cells; format: cell-based, human;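 as to Geometric CD3: measured on live single GFP+ RFP+ cells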
Experimental: as §1, §2, §3, §4

[1] = exp4, T cell +pep, 50 ug, replicate 1
[2] = exp4, T cell +pep, 50 ug, replicate 2
[3] = exp4, block, 50 ug, replicate 1
[4] = exp4, block, 50 ug, replicate 2
[5] = exp5, T cell +pep, 50 ug, replicate 1
[6] = exp5, T cell +pep, 50 ug, replicate 2
[7] = exp5, block, 50 ug, replicate 1
[8] = exp5, block, 50 ug, replicate 2

Cpeptide
MFI CD69 (SKW-3 A2.13 TCR cells; 0.016 ug, replicate 1): 1218 | MFI CD69 (SKW-3 A2.13 TCR cells; 0.016 ug, replicate 2): 1366 | MFI CD69 (SKW-3 A2.13 TCR cells; 0.08 ug, replicate 1): 1349 | MFI CD69 (SKW-3 A2.13 TCR cells; 0.08 ug, replicate 2): 1478 | MFI CD69 (SKW-3 A2.13 TCR cells; 0.4 ug, replicate 1): 1535 | MFI CD69 (SKW-3 A2.13 TCR cells; 0.4 ug, replicate 2): 1892 | MFI CD69 (SKW-3 A2.13 TCR cells; 2 ug, replicate 1): 1776 | MFI CD69 (SKW-3 A2.13 TCR cells; 2 ug, replicate 2): 2613 | MFI CD69 (SKW-3 A2.13 TCR cells; 10 ug, replicate 1): 4442 | MFI CD69 (SKW-3 A2.13 TCR cells; 10 ug, replicate 2): 4296 | MFI CD69 (SKW-3 A2.13 TCR cells; 50 ug, replicate 1): 5931 | MFI CD69 (SKW-3 A2.13 TCR cells; 50 ug, replicate 2): 5830 | MFI CD69 (SKW-3 A2.13 TCR cells; 100 ug, replicate 1): 5697 | MFI CD69 (SKW-3 A2.13 TCR cells; 100 ug, replicate 2): 6898 | MFI CD69 (SKW-3 A2.13 TCR cells; T cell +pep, 50 ug, replicate 1): 712 | MFI CD69 (SKW-3 A2.13 TCR cells; T cell +pep, 50 ug, replicate 2): 880 | MFI CD69 (SKW-3 A2.13 TCR cells; block, 50 ug, replicate 1): 796 | Geometric CD3 (SKW-3 A5.5 TCR cells; exp4, 0.016 ug, replicate 1): 970 | MFI CD69 (SKW-3 A5.5 TCR cells; exp4, 0.016 ug, replicate 1): 898 | Geometric CD3 (SKW-3 A5.5 TCR cells; exp4, 0.016 ug, replicate 2): 979 | MFI CD69 (SKW-3 A5.5 TCR cells; exp4, 0.016 ug, replicate 2): 906 | Geometric CD3 (SKW-3 A5.5 TCR cells; exp4, 0.08 ug, replicate 1): 1058 | MFI CD69 (SKW-3 A5.5 TCR cells; exp4, 0.08 ug, replicate 1): 987 | Geometric CD3 (SKW-3 A5.5 TCR cells; exp4, 0.08 ug, replicate 2): 1030 | MFI CD69 (SKW-3 A5.5 TCR cells; exp4, 0.08 ug, replicate 2): 964 | Geometric CD3 (SKW-3 A5.5 TCR cells; exp4, 0.4 ug, replicate 1): 1103 | MFI CD69 (SKW-3 A5.5 TCR cells; exp4, 0.4 ug, replicate 1): 1037 | Geometric CD3 (SKW-3 A5.5 TCR cells; exp4, 0.4 ug, replicate 2): 1058 | MFI CD69 (SKW-3 A5.5 TCR cells; exp4, 0.4 ug, replicate 2): 984 | Geometric CD3 (SKW-3 A5.5 TCR cells; exp4, 2 ug, replicate 1): 1233 | MFI CD69 (SKW-3 A5.5 TCR cells; exp4, 2 ug, replicate 1): 1175 | Geometric CD3 (SKW-3 A5.5 TCR cells; exp4, 2 ug, replicate 2): 1197 | MFI CD69 (SKW-3 A5.5 TCR cells; exp4, 2 ug, replicate 2): 1130 | Geometric CD3 (SKW-3 A5.5 TCR cells; exp4, 10 ug, replicate 1): 1614 | MFI CD69 (SKW-3 A5.5 TCR cells; exp4, 10 ug, replicate 1): 1582 | Geometric CD3 (SKW-3 A5.5 TCR cells; exp4, 10 ug, replicate 2): 1577 | MFI CD69 (SKW-3 A5.5 TCR cells; exp4, 10 ug, replicate 2): 1557 | Geometric CD3 (SKW-3 A5.5 TCR cells; exp4, 50 ug, replicate 1): 2018 | MFI CD69 (SKW-3 A5.5 TCR cells; exp4, 50 ug, replicate 1): 2047 | Geometric CD3 (SKW-3 A5.5 TCR cells; exp4, 50 ug, replicate 2): 1694 | MFI CD69 (SKW-3 A5.5 TCR cells; exp4, 50 ug, replicate 2): 1685 | Geometric CD3 (SKW-3 A5.5 TCR cells; exp4, 100 ug, replicate 1): 3490 | MFI CD69 (SKW-3 A5.5 TCR cells; exp4, 100 ug, replicate 1): 3626 | Geometric CD3 (SKW-3 A5.5 TCR cells; exp4, 100 ug, replicate 2): 3657 | MFI CD69 (SKW-3 A5.5 TCR cells; exp4, 100 ug, replicate 2): 3824 | Geometric CD3 (SKW-3 A5.5 TCR cells; [1]): 739 | MFI CD69 (SKW-3 A5.5 TCR cells; [1]): 670 | Geometric CD3 (SKW-3 A5.5 TCR cells; [2]): 745 | MFI CD69 (SKW-3 A5.5 TCR cells; [2]): 679 | Geometric CD3 (SKW-3 A5.5 TCR cells; [3]): 1084 | MFI CD69 (SKW-3 A5.5 TCR cells; [3]): 1022 | Geometric CD3 (SKW-3 A5.5 TCR cells; [4]): 1068 | MFI CD69 (SKW-3 A5.5 TCR cells; [4]): 1007 | Geometric CD3 (SKW-3 A5.5 TCR cells; exp5, 0.016 ug, replicate 1): 1160 | MFI CD69 (SKW-3 A5.5 TCR cells; exp5, 0.016 ug, replicate 1): 1101 | Geometric CD3 (SKW-3 A5.5 TCR cells; exp5, 0.016 ug, replicate 2): 1175 | MFI CD69 (SKW-3 A5.5 TCR cells; exp5, 0.016 ug, replicate 2): 1127 | Geometric CD3 (SKW-3 A5.5 TCR cells; exp5, 0.08 ug, replicate 1): 1165 | MFI CD69 (SKW-3 A5.5 TCR cells; exp5, 0.08 ug, replicate 1): 1110 | Geometric CD3 (SKW-3 A5.5 TCR cells; exp5, 0.08 ug, replicate 2): 1145 | MFI CD69 (SKW-3 A5.5 TCR cells; exp5, 0.08 ug, replicate 2): 1084 | Geometric CD3 (SKW-3 A5.5 TCR cells; exp5, 0.4 ug, replicate 1): 1217 | MFI CD69 (SKW-3 A5.5 TCR cells; exp5, 0.4 ug, replicate 1): 1166 | Geometric CD3 (SKW-3 A5.5 TCR cells; exp5, 0.4 ug, replicate 2): 1219 | MFI CD69 (SKW-3 A5.5 TCR cells; exp5, 0.4 ug, replicate 2): 1163 | Geometric CD3 (SKW-3 A5.5 TCR cells; exp5, 2 ug, replicate 1): 1325 | MFI CD69 (SKW-3 A5.5 TCR cells; exp5, 2 ug, replicate 1): 1295 | Geometric CD3 (SKW-3 A5.5 TCR cells; exp5, 2 ug, replicate 2): 1288 | MFI CD69 (SKW-3 A5.5 TCR cells; exp5, 2 ug, replicate 2): 1227 | Geometric CD3 (SKW-3 A5.5 TCR cells; exp5, 10 ug, replicate 1): 1582 | MFI CD69 (SKW-3 A5.5 TCR cells; exp5, 10 ug, replicate 1): 1562 | Geometric CD3 (SKW-3 A5.5 TCR cells; exp5, 10 ug, replicate 2): 1544 | MFI CD69 (SKW-3 A5.5 TCR cells; exp5, 10 ug, replicate 2): 1512 | Geometric CD3 (SKW-3 A5.5 TCR cells; exp5, 50 ug, replicate 1): 2599 | MFI CD69 (SKW-3 A5.5 TCR cells; exp5, 50 ug, replicate 1): 2696 | Geometric CD3 (SKW-3 A5.5 TCR cells; exp5, 50 ug, replicate 2): 2645 | MFI CD69 (SKW-3 A5.5 TCR cells; exp5, 50 ug, replicate 2): 2725 | Geometric CD3 (SKW-3 A5.5 TCR cells; exp5, 100 ug, replicate 1): 3392 | MFI CD69 (SKW-3 A5.5 TCR cells; exp5, 100 ug, replicate 1): 3527 | Geometric CD3 (SKW-3 A5.5 TCR cells; exp5, 100 ug, replicate 2): 3273 | MFI CD69 (SKW-3 A5.5 TCR cells; exp5, 100 ug, replicate 2): 3433 | Geometric CD3 (SKW-3 A5.5 TCR cells; [5]): 840 | MFI CD69 (SKW-3 A5.5 TCR cells; [5]): 793 | Geometric CD3 (SKW-3 A5.5 TCR cells; [6]): 856 | MFI CD69 (SKW-3 A5.5 TCR cells; [6]): 819 | Geometric CD3 (SKW-3 A5.5 TCR cells; [7]): 761 | MFI CD69 (SKW-3 A5.5 TCR cells; [7]): 694 | Geometric CD3 (SKW-3 A5.5 TCR cells; [8]): 846 | MFI CD69 (SKW-3 A5.5 TCR cells; [8]): 770

Reference: PMC8387461, “T cell receptor recognition of hybrid insulin peptides bound to HLA-DQ8” (Nature Communications, 2021)
